Laboratory results reported in paper PMC11620517, “Novel hydrazone compounds with broad-spectrum antiplasmodial activity and synergistic interactions with antimalarial drugs” (Antimicrobial Agents and Chemotherapy, 2024).
Read-outs that look alike come from different tables or passages of the source.

Assays:
human GST = target: T1, human GST (Homo sapiens, UniProt P08263); assay: GST inhibition assay (CDNB); type: biochemical; details: 6-point 1–50 µM
T1 construct: The open reading frames encoding PfGST, PbGST, and hGST were gene-synthesized; TEV cleavage site (C); Avitag (C); purchased InterRayBio, LLC; host or cells: E. coli BL21 (DE3)
T1 sequence (P08263 1-222): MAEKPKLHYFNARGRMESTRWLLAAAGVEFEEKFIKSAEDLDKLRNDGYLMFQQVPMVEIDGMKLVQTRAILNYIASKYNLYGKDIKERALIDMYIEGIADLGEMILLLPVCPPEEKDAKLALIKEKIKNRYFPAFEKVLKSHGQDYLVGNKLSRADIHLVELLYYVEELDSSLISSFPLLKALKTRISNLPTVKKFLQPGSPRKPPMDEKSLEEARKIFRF
Description: (§1) Enzymatic activities of recombinant GSTs were determined spectrophotometrically using the chromogenic substrate 1-chloro-2,4-dinitrobenzene (CDNB). Recombinant GST (0.35 mg/mL) was mixed with 1 mM CDNB in 100 mM HEPES. Stock solutions (10 mM) of the CB compounds and hemin were prepared in 100% dimethyl sulfoxide (DMSO) and then diluted at 0.5% DMSO ([14]). Each inhibitor has six concentrations ranging from 1 to 50 µM. The reaction was initiated with 1 mM glutathione (GSH) after 15 minutes. Absorbance change at 340 nm was measured for 1 hour. The slope was converted to micromole per minute using Beer’s equation and the extinction coefficient for the product S-(2,4-dinitrophenyl)glutathione (ε340 nm = 9.6 mM^–1 cm^–1) ([14]). The assay was validated using human placenta GST (#G8642) as a positive control.

[1] = target: T2, recombinant P. falciparum GST (Plasmodium falciparum, UniProt Q8ILQ7); assay: GST inhibition assay (CDNB); type: biochemical; details: 6-point 1–50 µM
T2 construct: The open reading frames encoding PfGST, PbGST, and hGST were gene-synthesized; TEV cleavage site (C); Avitag (C); purchased InterRayBio, LLC; host or cells: E. coli BL21 (DE3)
T2 sequence (Q8ILQ7 1-211): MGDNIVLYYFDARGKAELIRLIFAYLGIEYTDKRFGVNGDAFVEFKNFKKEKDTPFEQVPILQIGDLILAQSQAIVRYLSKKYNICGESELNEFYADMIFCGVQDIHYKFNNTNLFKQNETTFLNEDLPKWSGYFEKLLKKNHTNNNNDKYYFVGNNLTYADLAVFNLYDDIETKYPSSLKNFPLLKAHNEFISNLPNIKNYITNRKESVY
Description: as §1

[2] = system: recombinant P. berghei GST; assay: GST inhibition assay (CDNB); type: biochemical, Plasmodium berghei; details: 6-point 1–50 µM
Description: as §1

P. falciparum C2B = assay: Malaria SYBR Green I-Based Fluorescence (MSF) assay, blood stages; type: cell-based; details: Plasmodium falciparum, 72 h, read-out: IC50 (µM) (±SD) for strain: C2B
Description: (§2) MSF assays were performed in vitro with four P. falciparum strains: D6 (drug sensitive), TM91-C235 (multidrug resistant), W2 (CQ resistant), and C2B (multidrug resistant against ATQ). Parasite strains were kept continuously in long-term cultures as described ([22]). Pre-dosed 384-well plates containing […] serial dilutions of CB compounds (0.0098–20 µM) were prepared using the Tecan Freedom Evo liquid handling system (Tecan USA, Inc., Durham, NC, USA) and were stored at 4°C. A CQ control plate (2,000 ng/mL) was included in each run. Based on modifications of previous methods ([17], [55]), late-ring or early-trophozoite stages were cultured in pre-dosed plates with 0.3% parasitemia and 2% hematocrit. Cultures were incubated for 72 hours at 37°C in a controlled atmosphere of 5% CO2, 5% O2, and 90% N2. Lysis buffer, consisting of 20 mM Tris HCl, 5 mM EDTA, 1.6% Triton X, 0.016% saponin, and SYBR Green I dye at a 20X concentration (Invitrogen #S-7567), was added to the plates for a final 10X SYBR Green concentration. Plates containing cell culture media and lysis buffer were incubated in the dark at 25°C for 24 hours, and the relative fluorescence units (RFU) were measured using the Tecan Genios Plus (Tecan USA, Inc.).

P. falciparum D6 = assay: as above; type: cell-based; details: Plasmodium falciparum, read-out: IC50 (µM) (±SD) for strain: D6
Description: as §2

P. falciparum TM91c235 = assay: as above; type: cell-based; details: Plasmodium falciparum, read-out: IC50 (µM) (±SD) for strain: TM91c235
Description: as §2

P. falciparum W2 = assay: as above; type: cell-based; details: Plasmodium falciparum, read-out: IC50 (µM) (±SD) for strain: W2
Description: as §2

[3] = system: P. cynomolgi hypnozoites and hepatic schizonts; assay: P. cynomolgi liver-stage inhibition assay; type: cell-based, Plasmodium cynomolgi; details: for IC50: Plasmodium cynomolgi
Description: Primary primate hepatocytes were seeded in 384-well plates and used within 2–4 days ([56]). P. cynomolgi B strain parasites were inoculated and developed into hypnozoites and schizonts. CB compounds were tested in 8-point, threefold serial dilutions (100 µM to […]) for both prophylactic (4 days starting with sporozoite addition) and radical cure (4 days starting day 4 post-inoculation) modalities ([56][–][60]). The Operetta CLS imaging system and Harmony Software 4.9 (Perkin Elmer, Waltham, MA, USA) analyzed the plates, and the percentage of inhibition (PI) was calculated in Python using equation (1), where parasitic quantities (hypnozoite and schizont counts) were normalized to the negative control ([57]). Each plate included negative (DMSO) and positive (KDU691, maduramicin, tafenoquine) controls ([58]). IC50 values were determined using an 8-point, threefold dilution format and a Python-adapted grid algorithm for fitting PI to a four-parameter logistic function ([61]).
PI = 100 ∗(1−(xy/Meanneg))

in vitro = details: human
Description: HepG2 cell viability was assessed using the Cell Proliferation kit with trypan blue exclusion. […] After incubation, a 1.5-mg/mL Cell Proliferation kit solution diluted in complete MEM medium was added to each well, followed by 1-hour dark incubation at 25°C. After aspiration of media and inhibitors, the plates were dried in a hood for 15 minutes, and acidified isopropyl alcohol was added to dissolve formazan dye crystals. The plates were then rotated for 15–30 minutes, and absorbance was determined using a Perkin Elmer Ensight plate reader.

[4] = D6, blood stages, 72 hours, drug-sensitive strain
[5] = blood stages, 72 hours, multidrug resistant strain
[6] = W2, blood stages, 72 hours, CQ resistant strain
[7] = prophylactic drug treatment mode, read-out: Hypnozoite IC50
[8] = prophylactic drug treatment mode, read-out: Schizont IC50
[9] = prophylactic drug treatment mode, read-out: Total parasite IC50

Row | Structure (SMILES) | GST inhibition (human GST) | GST inhibition [1] | GST inhibition [2] | IC50 (P. falciparum C2B) [µM] | IC50 (P. falciparum D6; [4]) [µM] | IC50 (P. falciparum TM91c235; [5]) [µM] | IC50 (P. falciparum W2; [6]) [µM] | IC50 [3, 7] [µM] | IC50 [3, 8] [µM] | IC50 [3, 9] [µM] | antiplasmodial activity on liver stages ([3]; radical cure mode) | IC50 at 48 h (in vitro; HepG2 cells) [µM] | IC50 (P. falciparum D6; D6, 72 h) [µM] | IC50 (P. falciparum TM91c235; 72 h) [µM] | IC50 (P. falciparum W2; W2, 72 h) [µM] | IC50 ([3]; read-out: Hypnozoite IC50) [µM] | IC50 ([3]; read-out: Schizont IC50) [µM] | IC50 ([3]; read-out: Total parasite IC50) [µM] | IC50 at 48 h (in vitro) [µM]
1 | COc1cccc(/C=N/NC(=O)c2nc(-c3ccccc3)cc(-c3ccccc3)n2)c1O [CB-41] | did not inhibit | did not inhibit | did not inhibit | 2.73 | 2.26 | 2.26 | 2.71 | 8.7 | 8.4 | 8.6 | did not show antiplasmodial activity | > 20 | – | – | – | – | – | – | –
2 | O=C(N/N=C/c1cc(Br)ccc1O)/C(=C/C=C/c1ccccc1)NC(=O)c1ccccc1 [CB-50] | did not inhibit | did not inhibit | did not inhibit | 1.89 | 1.14 | 1.84 | 1.15 | > 10 | > 10 | > 10 | – | > 20 | – | – | – | – | – | – | –
3 | O=C(NN=Cc1ccccc1O)c1cc(-c2ccccc2)nc2ccccc12 [CB-53] | did not inhibit | did not inhibit | did not inhibit | > 20 | > 20 | 13.9 | > 20 | > 10 | > 10 | > 10 | – | > 20 | – | – | – | – | – | – | –
4 | COc1cccc(/C=N/NC(=O)c2cc(-c3ccccc3)nc3ccccc23)c1O [CB-58] | did not inhibit | did not inhibit | did not inhibit | 8.83 | 8.44 | 10.6 | 5.63 | > 10 | > 10 | > 10 | – | > 20 | – | – | – | – | – | – | –
5 | O=C(N/N=C/c1c(O)ccc2ccccc12)c1cc([N+](=O)[O-])cc([N+](=O)[O-])c1 [CB-61] | did not inhibit | did not inhibit | did not inhibit | 0.3 | – | – | – | – | – | – | – | – | 0.2 | 0.26 | 0.22 | > 10 | > 10 | > 10 | > 20
